# Data as given in patent publication US20250042968A1, “EPHRIN LIGAND MIMETIC PEPTIDES FOR THE TREATMENT OF NEURODEGENERATIVE DISEASES” (University of Miami, priority 2022, published 2025).
# “Also recorded” adds a separate entry of the source.
# Experiments:
# [1] = tested on: ARHGEF15 (Ephexin-5); experiment: Western blot of ARHGEF15 in mRGCs; type: cell-based, mouse; conditions: 500 nM
# Description: (§1) On day 4, cells were treated with pre-clustered recombinant mouse EfnA5-His ligand [(+) Control, using anti-His_Tag antibody for 30 minutes] for 2 hours. Cells were then lysed in RIPA buffer containing protease and phosphatase inhibitor cocktails and maintained on ice. Protein was quantified using a BCA assay, and 10 μg of total protein was run on a TGX stain-free Any kD gel (BioRad) and transferred using the trans-blot turbo system (BioRad). Following transfer and blocking in 5% nonfat milk for 1 h, blots were probed with antibodies against RhoA, phosphorylated Rac1, ARHGEF15, Ephexin-1, or beta-actin as an endogenous loading control overnight at 4° C. Blots were then washed 3×5 min in PBS-T and incubated in the appropriate HRP-conjugated secondary antibody for 2 h at room temperature. Blots were imaged using chemiluminescent ECL substrate (Pierce) on a BioRad ChemiDoc MP imaging system and software.
# [2] = tested on: RGCs and optic nerve axons after optic nerve crush (ONC); experiment: Mouse model of optic nerve crush (ONC), intravitreal xEFN peptides; type: in vivo; conditions: for RGC pool rescue / survival over PBS-treated controls: intravitreal, 4 weeks after injury; for regenerating axons compared to controls: starting at 100 μm past the injury site and throughout the analysis window
# Description: Antagonizing forward Eph signaling has been proven beneficial in a number of CNS disorders (Neurogastroenterol Motil. 2020:e13782; Acta Neuropathol Commun. 2018; 6(1):111; Proc Natl Acad Sci USA. 2014 Jul. 8; 111(27):9959-64; Eur J Neurosci. 2014 Oct; 40(7):3021-31; Neuroscience. 2013 Jun. 25; 241:89-99). The use of xEFN peptides as multi-Eph receptor antagonists was evaluated in treating retinal degeneration induced by optic nerve crush (ONC). The ONC model is the most commonly used model for the study of glaucoma and other optic neuropathies. All animal experiments were performed in compliance with the National Institutes of Health (Bethesda, MD, USA) Guide for the Care and Use of Laboratory Animals and the ARVO Statement for the Use of Animals in Ophthalmic and Vision Research. Animal protocols were reviewed and approved by the Institutional Animal Care and Use Committee of the University of Miami. […] With the use of jeweler's forceps (Dumont No. 5; tip dimension, 0.1×0.06 mm), the optic nerve is then crushed for 10 seconds at a location 2 mm distal from its insertion point into the globe. […] […]. At 4 weeks post-injury, animals were euthanized and enucleated for extraction of the retinas and optic nerves. Retinas were stained by immunohistochemistry for TUBB3 and RGCs were manually counted in each animal. Optic nerves were placed into tissue clearing solution for 1 week and then imaged for the CTB-647 label as whole mounts using a Leica SP8 Laser Scanning Confocal microscope (Leica Microsystems). Axonal projections were quantified at 100 μm intervals along the optic nerve track for up to 2 mm past the crush site using the fluorometric intensity measurement and analysis tool in the Leica LAS X microscopy suite software package, using the contralateral nerve (not CTB-injected) as a background reading for 647 nm fluorometric intensity in each sample.
# [3] = target: T1, EphA2 (Mus musculus, UniProt Q03145); experiment: Western blot of EphA2 expression in isolated mouse RGCs; type: cell-based; conditions: 1 μM, 4 days
# T1 construct: endogenous in cells; host or cells: primary mouse retinal ganglion cells (p8-10 pups)
# Excerpt: In order to assess the effect of xEFN peptide supplementation on Eph-receptor modulation, various in vitro assays were employed on isolated mouse RGCs. […] Similarly, xEFN_RBD1, and 3 inhibited the phosphorylation of Rac1 by pre-clustered ephirnA5 ligand stimulation. […] TUBB3 is a marker specific for neuronal microtubules and functions as a neuronal-specific marker.
# [4] = target: T1, EphA2; experiment: Immunohistochemistry of TUBB3 and pEphA2 receptor in RGCs; type: cell-based; conditions: 500 nM, 4 days
# [5] = tested on: Ephexin-1; experiment: Western blot of phosphorylated Ephexin-1 in mRGCs; type: cell-based, mouse; conditions: 500 nM
# Description: as §1
# [6] = tested on: mouse RGC growth cones; experiment: RGC growth cone collapse analysis; type: cell-based; conditions: 500 nM, 4 days, mouse RGC cultures
# Description: One of the first signs of neuronal dysfunction is axonal growth cone collapse, and it is one of the mechanisms through which Eph-receptors exert their repulsive stimuli for axonal guidance. […] At the 48 h time point, cells were stimulated by the addition of 2 μg of pre-clustered recombinant mouse EfnA5-His (R&D Systems) for 1 hour. Following this stimulation, cells were fixed in 4% paraformaldehyde for 5 minutes, permeabilized with 0.05% Triton X-100, and blocked with 5% FBS for 1 h. Cells were then incubated in primary antibody against TUBB3 overnight at 4° C., washed, and incubated in AlexaFluor 488-conjugated secondary for 2 h at room temperature. After washing, cell cytoskeleton was counterstained with AlexaFluor 594-conjugated phalloidin for 30 min at 37° C. (ThermoFisher) and mounted with SlowFade Gold Anti-fade media with DAPI. Cells were then imaged using an EVOS FL Auto fluorescent microscope. Images were analyzed in ImageJ by a blinded investigator and a growth cone collapse was calculated manually.
# T1 sequence (Q03145 26-977): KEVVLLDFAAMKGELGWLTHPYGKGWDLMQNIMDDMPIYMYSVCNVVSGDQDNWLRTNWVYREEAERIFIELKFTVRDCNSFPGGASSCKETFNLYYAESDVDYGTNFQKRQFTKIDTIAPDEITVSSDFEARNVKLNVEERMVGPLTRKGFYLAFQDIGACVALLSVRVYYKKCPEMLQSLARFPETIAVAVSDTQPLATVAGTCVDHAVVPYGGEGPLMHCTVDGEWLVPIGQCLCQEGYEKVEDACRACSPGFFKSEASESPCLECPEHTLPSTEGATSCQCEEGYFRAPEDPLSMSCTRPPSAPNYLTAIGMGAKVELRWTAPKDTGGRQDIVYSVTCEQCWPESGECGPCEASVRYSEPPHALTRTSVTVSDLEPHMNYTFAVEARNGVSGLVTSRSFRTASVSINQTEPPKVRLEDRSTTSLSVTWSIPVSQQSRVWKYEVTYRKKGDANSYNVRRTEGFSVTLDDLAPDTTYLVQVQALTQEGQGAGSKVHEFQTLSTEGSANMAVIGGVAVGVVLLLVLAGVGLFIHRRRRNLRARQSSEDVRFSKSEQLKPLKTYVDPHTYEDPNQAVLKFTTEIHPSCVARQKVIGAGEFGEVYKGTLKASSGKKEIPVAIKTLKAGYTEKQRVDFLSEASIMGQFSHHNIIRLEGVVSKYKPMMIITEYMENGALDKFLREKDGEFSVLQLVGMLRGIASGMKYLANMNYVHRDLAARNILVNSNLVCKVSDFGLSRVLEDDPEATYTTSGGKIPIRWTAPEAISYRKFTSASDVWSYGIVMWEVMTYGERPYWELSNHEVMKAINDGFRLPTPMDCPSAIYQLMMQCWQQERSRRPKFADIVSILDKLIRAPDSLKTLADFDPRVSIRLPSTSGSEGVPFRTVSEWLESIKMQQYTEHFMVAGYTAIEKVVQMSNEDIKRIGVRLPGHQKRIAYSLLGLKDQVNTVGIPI
sequence,measurement,setting,value
FTIKFQEFSPNLWGL [xEFN_RBD3],ARHGEF15 (Ephexin-5) level,[1],decrease
same,RGC survival,"[2]; 6 μg intravitreal twice (immediately after ONC and 7 days after), 4 weeks, compared to uninjured contralateral retina",44.17+/−2.39%
same,axonal projections detected distal to the crush site,"[2]; CTB labeled axons, 4 weeks post-ONC, analysis region 2000 μm",≥ 2000 μm
same,RGC pool rescue / survival over PBS-treated controls,[2],significant rescue
same,RGC pool rescue / survival over PBS-treated controls,[2]; listed as xEFN_EBD3,significant RGC survival
same,regenerating axons compared to controls,[2],significant increase
same,regenerating axons compared to controls,[2]; listed as xEFN_EBD3,axonal regeneration
same,expression of EphA2 (western blot),[3],reduced expression; also recorded: effectively decreased expression
same,dendritic density (immunohistochemistry),[4],increase dendritic density
same,phosphorylation of the EphA2 receptor (immunohistochemistry),[4],reduced phosphorylation
same,phosphorylation of Ephexin-1,[5],decrease
same,number of collapsed growth cones,[6],significant decrease
